# Source: PubChem BioAssay AID298 (DTP/NCI, 2004)
# “And” between values parts separate entries of the source, which are not always exact repeats. Identical values can stand only once. Results filed as inconclusive are left out.
# Tested on: MX-1 breast xenograft, intrarenal, nude mice, tumor weight
# Assay: NCI In Vivo Anticancer Drug Screen. Data for tumor model Human Mammary Carcinoma MX-1 Xenograft (intrarenal inoculation) in NU/NU BALB/C (nude) mice
# Conditions: endpoint: mean tumor weight change, higher = larger tumour
# In short: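 T/C readout: treated-group measurement over vehicle-control measurement, using tumor size or survival in tumor-bearing mice.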
# [1] = dose: 50.0 mg/kg/injection, schedule: Q04DX003 (ip), vehicle: suspension in saline
# [2] = dose: 300.0 mg/kg/injection, schedule: Q04DX003 (sc), vehicle: saline with Tween-80
# [3] = dose: 600.0 mg/kg/injection, schedule: Q04DX003 (sc), vehicle: saline with Tween-80
# [4] = dose: 37.5 mg/kg/injection, schedule: Q04DX003 (ip), vehicle: Klucel (hydroxypropylcellulose) (HPC)
# [5] = dose: 75.0 mg/kg/injection, schedule: Q04DX003 (ip), vehicle: Klucel (hydroxypropylcellulose) (HPC)
# [6] = dose: 150.0 mg/kg/injection, schedule: Q04DX003 (ip), vehicle: Klucel (hydroxypropylcellulose) (HPC)
# [7] = dose: 150.0 mg/kg/injection, schedule: Q04DX003 (sc), vehicle: saline
# [8] = dose: 150.0 mg/kg/injection, schedule: Q04DX003 (ip), vehicle: saline with Tween-80
# [9] = dose: 50.0 mg/kg/injection, schedule: Q04DX003 (ip), vehicle: saline with Tween-80
# [10] = dose: 100.0 mg/kg/injection, schedule: Q04DX003 (ip), vehicle: saline with Tween-80
# [11] = dose: 200.0 mg/kg/injection, schedule: Q04DX003 (ip), vehicle: saline with Tween-80
# [12] = dose: 300.0 mg/kg/injection, schedule: Q04DX003 (ip), vehicle: saline with Tween-80
# [13] = dose: 600.0 mg/kg/injection, schedule: Q04DX003 (ip), vehicle: saline with Tween-80
smiles,measurement,setting,value
COc1cccc2c1C(CO)N1C(C#N)C3CC(C(=O)O)C(C1C2)N3C (configuration not stated),T/C,"dose: 3.75 mg/kg/injection, schedule: Q04DX003 (ip), vehicle: saline",31 % of control
same,T/C,"dose: 6.25 mg/kg/injection, schedule: Q01DX010 (ip), vehicle: saline",-61 % of control
same,T/C,"dose: 6.25 mg/kg/injection, schedule: Q04DX003 (ip), vehicle: saline",9 % of control
same,T/C,"dose: 6.25 mg/kg/injection, schedule: Q04DX003 (ip), vehicle: suspension in saline",10 % of control
same,T/C,"dose: 7.5 mg/kg/injection, schedule: Q04DX003 (ip), vehicle: saline",40 % of control
same,T/C,"dose: 12.5 mg/kg/injection, schedule: Q01DX010 (ip), vehicle: saline",-100 % of control
same,T/C,"dose: 12.5 mg/kg/injection, schedule: Q04DX003 (ip), vehicle: saline",17 % of control
same,T/C,"dose: 12.5 mg/kg/injection, schedule: Q04DX003 (ip), vehicle: suspension in saline",6 % of control
same,T/C,"dose: 15.0 mg/kg/injection, schedule: Q04DX003 (ip), vehicle: saline",38 % of control
same,T/C,"dose: 25.0 mg/kg/injection, schedule: Q01DX010 (ip), vehicle: saline",-99 % of control
same,T/C,"dose: 25.0 mg/kg/injection, schedule: Q04DX003 (ip), vehicle: saline",14 % of control
same,T/C,"dose: 25.0 mg/kg/injection, schedule: Q04DX003 (ip), vehicle: suspension in saline",-48 % of control
same,T/C,"dose: 30.0 mg/kg/injection, schedule: Q04DX003 (ip), vehicle: saline",58 % of control
same,T/C,"dose: 50.0 mg/kg/injection, schedule: Q04DX003 (ip), vehicle: saline",2 % of control
same,T/C,[1],-79 % of control
same,T/C,"dose: 60.0 mg/kg/injection, schedule: Q04DX003 (ip), vehicle: saline",13 % of control
O=[N+]([O-])O.[Ga],T/C,"dose: 200.0 mg/kg/injection, schedule: Q04DX003 (sc), vehicle: saline",61 % of control
same,T/C,"dose: 400.0 mg/kg/injection, schedule: Q04DX003 (sc), vehicle: saline",67 % of control
same,T/C,"dose: 800.0 mg/kg/injection, schedule: Q04DX003 (sc), vehicle: saline",81 % of control
same,T/C,"dose: 1600.0 mg/kg/injection, schedule: Q04DX003 (sc), vehicle: saline",74 % of control
N#Cc1c(-c2ccccc2)c(-c2ccccc2)nn(CC(=O)O)c1=O,T/C,"dose: 100.0 mg/kg/injection, schedule: Q04DX003 (ip), vehicle: distilled water + Tween-80",120 % of control
same,T/C,"dose: 200.0 mg/kg/injection, schedule: Q04DX003 (ip), vehicle: distilled water + Tween-80",85 % of control
COC(=Nc1ccccc1)SSC(C)C,T/C,[2],90 % of control
same,T/C,[3],99 % of control
Nc1c(/C=C/c2cc3cc(C4=NCCN4)ccc3o2)[nH]c2cc(C3=NCCN3)ccc12,T/C,[4],80 % of control
same,T/C,[5],103 % of control
same,T/C,[6],40 % of control
COC(=O)C1C2CCCN2OC1(C)CO (configuration not stated),T/C,"dose: 30.0 mg/kg/injection, schedule: Q01DX001 (ip), vehicle: saline",224 % of control
same,T/C,"dose: 240.0 mg/kg/injection, schedule: Q01DX001 (ip), vehicle: saline",118 % of control
same,T/C,"dose: 480.0 mg/kg/injection, schedule: Q01DX001 (ip), vehicle: saline",80 % of control
COc1cc2c(cc1OC)[C@@H]1C(=O)c3ccc4c(c3O[C@@H]1CO2)C[C@H](C(C)C)O4,T/C,[4],78 % of control
same,T/C,[5],55 % of control
same,T/C,[6],57 % of control
CCOC(=O)/C=C/C(=O)N1CCN(C(=O)/C=C/C(=O)OCC)C(C)C1 (configuration not stated),T/C,[6],103 % of control
same,T/C,"dose: 300.0 mg/kg/injection, schedule: Q04DX003 (ip), vehicle: Klucel (hydroxypropylcellulose) (HPC)",83 % of control
same,T/C,"dose: 600.0 mg/kg/injection, schedule: Q04DX003 (ip), vehicle: Klucel (hydroxypropylcellulose) (HPC)",77 % of control
NC(=S)N/N=C/c1ccc(O)cn1,T/C,"dose: 100.0 mg/kg/injection, schedule: Q04DX003 (sc), vehicle: saline with Tween-80",88 % of control
same,T/C,"dose: 200.0 mg/kg/injection, schedule: Q04DX003 (sc), vehicle: saline with Tween-80",101 % of control
same,T/C,"dose: 400.0 mg/kg/injection, schedule: Q04DX003 (sc), vehicle: saline with Tween-80",92 % of control
COC1C(OC(=O)/C=C/C=C/C=C/C=C/C(=O)O)CCC2(CO2)C1C1(C)OC1CC=C(C)C (configuration not stated),T/C,[7],102 % of control
same,T/C,"dose: 300.0 mg/kg/injection, schedule: Q04DX003 (sc), vehicle: saline",96 % of control
same,T/C,"dose: 600.0 mg/kg/injection, schedule: Q04DX003 (sc), vehicle: saline",62 % of control
N/C(=N/N=C/c1cc(Br)cc(Br)c1O)NO,T/C,[1],107 % of control
same,T/C,"dose: 200.0 mg/kg/injection, schedule: Q04DX003 (ip), vehicle: suspension in saline",27 % of control
Cc1ccc(/C=C/C(=O)/C=C/c2ccc(C)o2)o1,T/C,"dose: 100.0 mg/kg/injection, schedule: Q04DX003 (ip), vehicle: DMSO",94 % of control
same,T/C,"dose: 200.0 mg/kg/injection, schedule: Q04DX003 (ip), vehicle: DMSO",112 % of control
same,T/C,"dose: 800.0 mg/kg/injection, schedule: Q04DX003 (ip), vehicle: DMSO",107 % of control
CCN(CC)c1cc(C(=O)O)cc(N(CC)CC)n1,T/C,"dose: 50.0 mg/kg/injection, schedule: Q04DX003 (ip), vehicle: other",155 % of control
same,T/C,"dose: 100.0 mg/kg/injection, schedule: Q04DX003 (ip), vehicle: other",74 % of control
C[C@]12CC[C@H](O)CC1=CC[C@@H]1[C@@H]2CC[C@]2(C)C(=O)CC[C@@H]12,T/C,[2],77 % of control
same,T/C,[3],76 % of control
same,T/C,"dose: 1200.0 mg/kg/injection, schedule: Q04DX003 (sc), vehicle: saline with Tween-80",63 % of control
same,T/C,"dose: 2400.0 mg/kg/injection, schedule: Q04DX003 (sc), vehicle: saline with Tween-80",68 % of control
O=S(=O)(O)C1=CC(=N\Cl)/C=CC/1=N/Cl,T/C,[8],89 % of control
CN(C)N=Nc1ccc(C(N)=O)cc1,T/C,[9],85 % of control
same,T/C,[10],78 % of control
same,T/C,[11],80 % of control
O=C(NNC(=O)c1cccc(C(=O)NNC(=O)c2ccc(Cl)c(Cl)c2)n1)c1ccc(Cl)c(Cl)c1,T/C,[9],106 % of control
same,T/C,[10],78 % of control
same,T/C,[8],73 % of control
same,T/C,[11],98 % of control
same,T/C,[12],64 % of control
same,T/C,"dose: 400.0 mg/kg/injection, schedule: Q04DX003 (ip), vehicle: saline with Tween-80",102 % of control
same,T/C,[13],65 % of control
CC1(C)Nc2cc3c(cc2-n2cccc21)oc1ccccc13,T/C,"dose: 150.0 mg/kg/injection, schedule: Q04DX003 (ip), vehicle: DMSO",113 % of control
same,T/C,"dose: 300.0 mg/kg/injection, schedule: Q04DX003 (ip), vehicle: DMSO",90 % of control
same,T/C,"dose: 600.0 mg/kg/injection, schedule: Q04DX003 (ip), vehicle: DMSO",83 % of control
same,T/C,"dose: 1200.0 mg/kg/injection, schedule: Q04DX003 (ip), vehicle: DMSO",80 % of control
O=C1c2ccccc2C(Cl)(c2ccc(Cl)cc2)c2ccc(Cl)cc21 (configuration not stated),T/C,[8],53 % of control
same,T/C,[12],60 % of control
same,T/C,[13],48 % of control
same,T/C,"dose: 1200.0 mg/kg/injection, schedule: Q04DX003 (ip), vehicle: saline with Tween-80",30 % of control
COC1=C(C)C(=O)C2=C(C1=O)C(CO)N1C(C#N)C3CC4C(C1C2N1CCOC41)N3C (configuration not stated),T/C,"dose: 0.9 mg/kg/injection, schedule: Q04DX003 (ip), vehicle: acid diluted with saline",55 % of control
same,T/C,"dose: 1.25 mg/kg/injection, schedule: Q04DX003 (ip), vehicle: acid diluted with saline",35 % of control
same,T/C,"dose: 1.5 mg/kg/injection, schedule: Q04DX003 (ip), vehicle: acid diluted with saline",19 % of control
same,T/C,"dose: 2.5 mg/kg/injection, schedule: Q04DX003 (ip), vehicle: acid diluted with saline",17 % of control and 19 % of control
same,T/C,"dose: 2.5 mg/kg/injection, schedule: Q04DX003 (ip), vehicle: saline + alcohol",50 % of control
same,T/C,"dose: 5.0 mg/kg/injection, schedule: Q04DX003 (ip), vehicle: saline + alcohol",42 % of control
CN(N=O)C(=O)N[C@@H](C=O)[C@@H](O)[C@H](O)[C@H](O)CO,T/C,"dose: 37.0 mg/kg/injection, schedule: Q04DX003 (ip), vehicle: other",193 % of control
same,T/C,"dose: 75.0 mg/kg/injection, schedule: Q04DX003 (ip), vehicle: other",117 % of control
same,T/C,"dose: 150.0 mg/kg/injection, schedule: Q04DX003 (ip), vehicle: other",70 % of control
same,T/C,[7],63 % of control
